Values quoted from earlier work, collected in patent publication US4101676A, “Diphenylpropylamines to treat depression” (Beecham Group Limited, priority 1973, dated 1978).

System: central nervous system
Conditions: Barron et al, J. Pharm. Pharmacol., 17, 509 (1965); cited from earlier work

Q: What does the source list for `CN(C)CCC(O)(c1ccccc1)c1ccccc1` [1:1-diphenyl-3-dimethylaminopopan-1-ol]?
A: effects on the central nervous system: considerable effects on the central nervous system; side effects: anorexia, diuresis, ataxia and drowsiness
